Patent EP1277754B1, “IMIDAZOPYRIDINE DERIVATIVES” (YAMANOUCHI PHARMACEUTICAL CO. LTD., priority 2000, dated 2001)

test system: A375 cells; assay: Melanoma cell growth inhibition (Alamar Blue); assay type: cell-based; conditions: Homo sapiens, A-375, incubation over 46 hours
Description: A375 cells from a melanoma cell line were cultured in DMEM medium (GIBCO) supplemented with 10% fetal bovine serum. A375 cells at 10,000 cells/100µl were added to a 96 well plate which contained 1 µl/well of the test compounds (final concentration of 0.001 ~ 30µM). After incubation for over 46 hours, Alamar Blue reagent was added to the medium (10µl/well). Two hours after the addition, a ratio of fluorescent intensity at an excitation wavelength of 530 nm to that at an emission wavelength of 590 nm was measured to determine the IC50 of the test compounds in the same manner as in the above examples.

SMILES | IC50
Cc1ccc([N+](=O)[O-])cc1S(=O)(=O)n1ccc(-c2c(C)nc3ccc(Br)cn23)n1 [Compound 6, 3-(6-Bromo-2-methylimidazo[1,2-a]pyridin-3-yl)-1H-pyrazol-1-yl 2-methyl-5-nitrophenyl sulfone] | < 1000 nM
Cc1ccc([N+](=O)[O-])cc1S(=O)(=O)n1ccc(-c2cnc3ccc(Br)cn23)n1 [Compound 30, 3-(6-bromoimidazo[1,2-a]pyridin-3-yl)-1H-pyrazol-1-yl 2-methyl-5-nitrophenyl sulfone] | < 1000 nM
CCc1ccc([N+](=O)[O-])cc1S(=O)(=O)N(C)N=Cc1cnc2ccc(Br)cn12 [Compound 53, 2'-[(6-bromoimidazo[1,2-a]pyridin-3-yl)methylidene]-2-ethyl-1'-methyl-5-nitrobenzenesulfonohydrazide] | < 1000 nM
Cc1ccc(C#N)cc1S(=O)(=O)N(C)N=Cc1cnc2ccc(Br)cn12 [Compound 54, 3-({2-[(6-bromoimidazo[1,2-a]pyridin-3-yl)methylidene]-1-methylhydrazino}sulfonyl)-4-methylbenzonitrile] | < 1000 nM
Cc1ccc([N+](=O)[O-])cc1S(=O)(=O)c1nc(-c2cnc3ccc(Cl)cn23)cs1 [Compound 65, 6-chloro-3-[2-(2-methyl-5-nitrobenzenesulfonyl)thiazol-4-yl]imidazo[1,2-a]pyridine] | < 1000 nM
Cc1ccc([N+](=O)[O-])cc1S(=O)(=O)N(CCN1CCOCC1)N=Cc1cnc2ccc(Br)cn12 [Compound 77, 6-bromo-3-{[(2-methyl-5-nitrobenzenesulfonyl)(2-morpholinoethyl)hydrazono]methyl}imidazo[1,2-a]pyridine] | < 1000 nM
Cc1ccc(C#N)cc1S(=O)(=O)N(C)N=Cc1cnc2ccc(F)cn12 [Compound 95, 5-cyano-2'-[(6-fluoroimidazo[1,2-a]pyridin-3-yl)methylidene]-1',2-dimethylbenzenesulfonohydrazide] | < 1000 nM
Cc1ccc(C#N)cc1S(=O)(=O)N(C)N=Cc1cnc2ccc(C#N)cn12 [Compound 96, 5-cyano-2'-[(6-cyanoimidazo[1,2-a]pyridin-3-yl)methylidene]-1',2-dimethylbenzenesulfonohydrazide] | < 1000 nM
CN(N=Cc1cnc2ccc(Cl)cn12)S(=O)(=O)c1cc([N+](=O)[O-])ccc1-n1ccnc1 [Compound 112, 2'-[(6-chloroimidazo[1,2-a]pyridin-3-yl)methylidene]-2-(1H-imidazol-1-yl)-1'-methyl-5-nitrobenzenesulfonohydrazide] | < 1000 nM

Further lines, results first:

IC50 | SMILES
< 1000 nM | Cc1ccc([N+](=O)[O-])cc1S(=O)(=O)N(C)N=Cc1cnc2ccc(Br)cn12 [Compound 43, 2'-[(6-bromoimidazo[1,2-a]pyridin-3-yl)methylidene]-1',2-dimethyl-5-nitrobenzenesulfonohydrazide]
< 1000 nM | Cc1ccc([N+](=O)[O-])cc1S(=O)(=O)N(C)N=Cc1cnc2ccc(F)cn12 [Compound 57, 2'-[(6-fluoroimidazo[1,2-a]pyridin-3-yl)methylidene]-1',2-dimethyl-5-nitrobenzenesulfonohydrazide]
< 1000 nM | CN(N=Cc1cnc2ccc(Cl)cn12)S(=O)(=O)c1cc([N+](=O)[O-])ccc1N [Compound 59, 2-amino-2'-[(6-chloroimidazo[1,2-a]pyridin-3-yl)methylidene]-1'-methyl-5-nitrobenzenesulfonohydrazide]
< 1000 nM | CN(N=Cc1cnc2ccc(Cl)cn12)S(=O)(=O)c1cc([N+](=O)[O-])ccc1OCC(F)(F)F [Compound 60, 2'-[(6-chloroimidazo[1,2-a]pyridin-3-yl)methylidene]-1'-methyl-5-nitro-2-(2,2,2-trifluoroethoxy)benzenesulfonohydrazide]
< 1000 nM | Cc1ccc([N+](=O)[O-])cc1S(=O)(=O)N(C)N=Cc1cnc2ccc(Cl)cn12 [Compound 88, 6-chloro-3-{[(methyl)(2-methyl-5-nitrobenzenesulfonyl)hydrazono]methyl}imidazo[1,2-a]pyridine]
< 1000 nM | Cc1ccc([N+](=O)[O-])cc1S(=O)(=O)N(C)N=Cc1cnc2ccc(C#N)cn12 [Compound 93, 3-{[(methyl)(2-methyl-5-nitrobenzenesulfonyl)hydrazono]methyl}imidazo[1,2-a]pyridine-6-carbonitrile]
< 1000 nM | CN(C)c1ccc([N+](=O)[O-])cc1S(=O)(=O)N(C)N=Cc1cnc2ccc(Cl)cn12 [Compound 113, 2'-[(6-chloroimidazo[1,2-a]pyridin-3-yl)methylidene]-2-dimethylamino-1'-methyl-5-nitrobenzenesulfonohydrazide]

same assay, conditions: incubation over 46 hours

IC50 | SMILES
< 1000 nM | Cc1ccc2ncc(C=NN(C)S(=O)(=O)c3cc([N+](=O)[O-])ccc3C)n2c1 [Compound 99, 1'2-dimethyl-2'-[(6-methylimidazo[1,2-a]pyridin-3-yl)methylidene]-5-nitrobenzenesulfonohydrazide]

test system: HCT116 cells; assay: Colon cancer cell growth inhibition (Alamar Blue); assay type: cell-based; conditions: incubation over 72 hours, result in words
Description: Test Example 2 Colon cancer cell growth inhibition
HCT116 cells from a colon cancer cell line were cultured in McCoy's 5A medium (GIBCO) supplemented with 10% fetal bovine serum. HCTI 16 cells were inoculated on a 96 well plate (5000 cells/well) followed by overnight incubation. The test compound diluted with the medium was added to the medium in a final concentration of 0.1 to 30µM (final DMSO concentration, 1%). After incubation for over 72 hours, Alamar Blue reagent was added to the medium. Two hours after the addition, a ratio of fluorescent intensity at an excitation wavelength of 530 nm to that at an emission wavelength of 590 nm was measured to determine the IC50.

SMILES | cancer cell growth inhibition activity
Cc1ccc([N+](=O)[O-])cc1S(=O)(=O)n1ccc(-c2c(C)nc3ccc(Br)cn23)n1 [Compound 6, 3-(6-Bromo-2-methylimidazo[1,2-a]pyridin-3-yl)-1H-pyrazol-1-yl 2-methyl-5-nitrophenyl sulfone] | good cancer cell growth inhibition activity
